Assay results from patent US11840686B2, “Modulation of prekallikrein (PKK) expression” (Ionis Pharmaceuticals, Inc., priority 2013, dated 2023).
Strand notation (5' to 3'): a small letter for the sugar, then the base; units joined by * are phosphorothioate-linked, units joined directly phosphodiester-linked; [ ] holds rarer units or linkages, { } end groups; capitals alone tell only the bases. e = 2'-O-(2-methoxyethyl) (MOE); k = constrained ethyl (cEt); [5mC] = 5-methylcytosine; d = 2'-deoxy (DNA)

Tested on: human PKK mRNA
Assay: Antisense inhibition of human PKK mRNA in HepaRG cells, 1,000 nM, MOE/deoxy/cEt oligonucleotides (Example 3)
Assay type: cell-based
How it was run: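 HepaRG cells at 20,000 per well electroporated with 1,000 nM 16-mer MOE/cEt/deoxy gapmers (phosphorothioate, 5-methylcytosine). After about 24 h, PKK mRNA measured by qRT-PCR with primer probe set RTS3454, normalized to RIBOGREEN total RNA. Reported as percent inhibition versus untreated cells.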

[1] = Table 20, HepaRG cells, electroporation with 1,000 nM antisense oligonucleotide, approximately 24 hours, PKK mRNA by RT-PCR (RTS3454), relative to untreated control cells
[2] = Table 22 experiment, HepaRG cells, electroporation with 1,000 nM antisense oligonucleotide, approx. 24 hours, PKK mRNA by RT-PCR (RTS3454), relative to untreated control cells
[3] = Table 21 experiment, HepaRG cells, electroporation with 1,000 nM antisense oligonucleotide, approx. 24 hours, PKK mRNA by RT-PCR (RTS3454), relative to untreated control cells
[4] = PKK mRNA, HepaRG cells, 1,000 nM antisense oligonucleotide, Table 31
[5] = Table 19, HepaRG cells, electroporation with 1,000 nM antisense oligonucleotide, approximately 24 hours, PKK mRNA by RT-PCR (RTS3454), relative to untreated control cells
[6] = Table 27, HepaRG cells, 1,000 nM antisense oligonucleotide, human PKK mRNA
[7] = HepaRG cells, 1,000 nM antisense oligonucleotide, Table 29
[8] = Table 28, HepaRG cells, 1,000 nM antisense oligonucleotide, human PKK mRNA
[9] = HepaRG cells, electroporation with 1,000 nM antisense oligonucleotide, approx. 24 hours, PKK mRNA by RT-PCR (RTS3454), relative to untreated control cells, Table 26 experiment

547919 (eG*eA*kA*d[5mC]*d[5mC]*d[5mC]*dT*dG*dG*d[5mC]*dA*dA*d[5mC]*kA*kT*e[5mC]; antisense) [compound 547919]
% inhibition [1]: 41% | % inhibition [2]: 73%

547794 (antisense eT*e[5mC]*kA*dT*dA*dG*dA*dG*dT*dT*dG*dA*dG*kT*k[5mC]*eA) [compound 547794]
% inhibition [3]: 49%

548619 (antisense eG*eG*kT*dT*dG*dG*dT*dG*dG*d[5mC]*dG*dG*dG*kA*kT*e[5mC]) [compound 548619]
% inhibition [4]: 19%

548078 (eT*e[5mC]*kT*dT*d[5mC]*dA*dT*dT*dT*dG*dT*dT*dA*k[5mC]*k[5mC]*eA; antisense) [compound 548078]
% inhibition [5]: 36%

548115 (antisense e[5mC]*eA*kT*dG*d[5mC]*dT*dG*dG*dT*dG*dA*d[5mC]*dT*kG*k[5mC]*eA) [compound 548115]
% inhibition [5]: 76%

548308 (eA*eA*kT*dG*dG*d[5mC]*dA*dG*dG*dT*d[5mC]*d[5mC]*dT*kG*kG*e[5mC]; antisense) [compound 548308]
% inhibition [6]: 9%

548368 (eG*eT*kG*dT*dT*d[5mC]*dA*dT*dA*d[5mC]*dG*dG*dA*kA*kG*e[5mC]; antisense) [compound 548368]
% inhibition [6]: 59%

548585 (eT*eA*kG*dG*d[5mC]*dA*d[5mC]*dA*dG*dA*d[5mC]*dA*dA*k[5mC]*k[5mC]*eT; antisense) [compound 548585]
% inhibition [7]: 33%

548341 (antisense eT*eA*kG*dA*dA*d[5mC]*d[5mC]*dT*dT*d[5mC]*d[5mC]*dT*d[5mC]*k[5mC]*kA*e[5mC]) [compound 548341]
% inhibition [6]: 30%

548532 (antisense eT*eA*kT*dT*dT*dA*dT*d[5mC]*d[5mC]*dG*dA*d[5mC]*d[5mC]*kT*k[5mC]*eT) [compound 548532]
% inhibition [8]: 34%

547796 (antisense eA*eT*k[5mC]*d[5mC]*d[5mC]*d[5mC]*dA*d[5mC]*d[5mC]*dT*d[5mC]*dT*dG*kA*kA*eG) [compound 547796]
% inhibition [3]: 35%

548176 (eG*eA*kT*d[5mC]*dT*d[5mC]*dA*dG*dT*dT*dG*d[5mC]*dG*kA*k[5mC]*e[5mC]; antisense) [compound 548176]
% inhibition (HepaRG cells, electroporation with 1,000 nM antisense oligonucleotide, approx. 24 hours, PKK mRNA by RT-PCR (RTS3454), relative to untreated control cells, Table 25 experiment): 38%

548623 (antisense eG*e[5mC]*kT*dG*dT*d[5mC]*dA*d[5mC]*dT*dT*dA*dA*dG*k[5mC]*k[5mC]*eA) [compound 548623]
% inhibition [4]: 16%

548248 (antisense eT*eG*k[5mC]*dG*dA*dT*dT*dT*dT*d[5mC]*d[5mC]*dA*dT*kG*k[5mC]*eA) [compound 548248]
% inhibition [9]: 13%

547899 (eG*eT*kA*d[5mC]*dT*dT*dT*dA*dA*dT*dA*dG*dG*k[5mC]*kA*eA; antisense) [compound 547899]
% inhibition [1]: 49% | % inhibition [2]: 68%

547856 (antisense e[5mC]*eA*kT*dA*dT*d[5mC]*dA*dA*d[5mC]*dT*d[5mC]*d[5mC]*dT*kT*kT*eA) [compound 547856]
% inhibition [1]: 93% | % inhibition [2]: 51%

548246 (eT*eT*k[5mC]*d[5mC]*dA*dT*dG*d[5mC]*dA*dT*dA*d[5mC]*dT*k[5mC]*kG*e[5mC]; antisense) [compound 548246]
% inhibition [9]: 46%

548629 (antisense e[5mC]*e[5mC]*k[5mC]*dA*dT*d[5mC]*dT*dT*dG*dG*dG*dA*d[5mC]*kT*kT*eT) [compound 548629]
% inhibition [4]: 44%

548335 (antisense eT*eA*kG*d[5mC]*dA*dT*d[5mC]*dA*dT*dG*d[5mC]*d[5mC]*dA*k[5mC]*kA*eG) [compound 548335]
% inhibition [6]: 51%

548111 (antisense eG*eA*k[5mC]*dT*dG*d[5mC]*dA*dT*d[5mC]*dT*dG*dA*dG*k[5mC]*kT*eT) [compound 548111]
% inhibition [5]: 53%

548564 (antisense eT*eT*kG*d[5mC]*dT*dA*d[5mC]*dT*dT*dT*dA*d[5mC]*dA*k[5mC]*k[5mC]*eA) [compound 548564]
% inhibition [7]: 69%

548385 (eT*e[5mC]*k[5mC]*dT*dG*dG*dA*dG*dG*d[5mC]*dA*d[5mC]*d[5mC]*kA*kA*eT; antisense) [compound 548385]
% inhibition (Table 30, human PKK mRNA, HepaRG cells, 1,000 nM antisense oligonucleotide): 0%

548301 (e[5mC]*e[5mC]*kT*dA*dG*dT*dA*d[5mC]*dA*dA*dA*dG*dT*kG*kG*e[5mC]; antisense) [compound 548301]
% inhibition [9]: 65%

547797 (antisense eA*eG*k[5mC]*dT*dA*d[5mC]*dA*dT*d[5mC]*d[5mC]*d[5mC]*d[5mC]*dA*k[5mC]*k[5mC]*eT) [compound 547797]
% inhibition [3]: 33%

547908 (e[5mC]*eA*kA*dT*dT*dT*d[5mC]*dT*dG*dA*dA*dA*dG*kG*kG*e[5mC]; antisense) [compound 547908]
% inhibition [1]: 94% | % inhibition [2]: 71%

548317 (e[5mC]*e[5mC]*kG*dG*dG*dA*dA*dA*dG*dA*d[5mC]*dT*dG*kT*k[5mC]*eT; antisense) [compound 548317]
% inhibition [6]: 42%

548034 (eA*eT*kA*dG*dA*dT*dG*d[5mC]*dG*d[5mC]*d[5mC]*dA*dA*kA*k[5mC]*eA; antisense) [compound 548034]
% inhibition (HepaRG cells, electroporation with 1,000 nM antisense oligonucleotide, approximately 24 hours, primer probe set RTS3454, relative to untreated control cells, experiment of Table 24): 31%

547827 (eG*eT*kT*d[5mC]*dG*dA*dT*dG*dT*dA*d[5mC]*dT*dT*kT*kT*eG; antisense) [compound 547827]
% inhibition [3]: 47%

548602 (eG*eG*kT*dG*dG*dT*dG*dG*dA*dA*dT*dT*dG*kG*kT*eG; antisense) [compound 548602]
% inhibition [7]: 20%

548550 (antisense e[5mC]*e[5mC]*kG*dG*d[5mC]*d[5mC]*dT*dG*dG*dA*dT*dA*d[5mC]*kA*kG*e[5mC]) [compound 548550]
% inhibition [7]: 0%

547968 (antisense eT*eT*kA*dG*dA*dA*dT*dG*dG*d[5mC]*dA*dG*dG*kG*kT*eT) [compound 547968]
% inhibition (HepaRG cells, electroporation with 1,000 nM antisense oligonucleotide, approximately 24 hours, primer probe set RTS3454, relative to untreated control cells, experiment of Table 23): 37%

548644 (antisense eA*eA*k[5mC]*dT*dG*dG*dG*d[5mC]*dA*dG*dT*d[5mC]*d[5mC]*kT*kT*e[5mC]) [compound 548644]
% inhibition [4]: 14%

548462 (eA*e[5mC]*k[5mC]*dT*dA*dT*dA*dT*d[5mC]*dA*d[5mC]*dT*dG*kT*kA*eA; antisense) [compound 548462]
% inhibition [8]: 0%

548273 (antisense eA*eA*kT*d[5mC]*dT*d[5mC]*d[5mC]*dA*d[5mC]*d[5mC]*d[5mC]*d[5mC]*d[5mC]*kG*kA*eA) [compound 548273]
% inhibition [9]: 5%

547792 (antisense eT*e[5mC]*k[5mC]*dA*d[5mC]*dA*dG*dG*dA*dA*dA*d[5mC]*dT*kG*kT*eA) [compound 547792]
% inhibition [3]: 31%

548303 (eG*eG*kG*d[5mC]*d[5mC]*d[5mC]*d[5mC]*d[5mC]*dA*dT*dG*dT*d[5mC]*k[5mC]*kA*eT; antisense) [compound 548303]
% inhibition [9]: 0%

548344 (antisense eG*eG*k[5mC]*dA*dA*d[5mC]*dT*dA*dT*dG*dT*dT*d[5mC]*kT*k[5mC]*eA) [compound 548344]
% inhibition [6]: 76%

548511 (antisense eA*eG*k[5mC]*dT*dA*dG*d[5mC]*dT*dG*dA*d[5mC]*d[5mC]*d[5mC]*k[5mC]*kA*eA) [compound 548511]
% inhibition [8]: 16%

548466 (e[5mC]*eG*kT*d[5mC]*dA*d[5mC]*dT*dG*dT*dA*d[5mC]*d[5mC]*dT*kA*kT*eA; antisense) [compound 548466]
% inhibition [8]: 71%
